The source of these data is US11613533B2, “Compounds useful for inhibiting RET kinase” (Eli Lilly and Company, priority 2020, dated 2023).

Assay [1] deals with T1, wildtype RET kinase (N-terminal GST tagged recombinant human RET cytoplasmic domain, aa 658-end) (Homo sapiens, UniProt P07949).
T1 construct: human RET cytoplasmic domain (aa 658-end); GST (N); purchased Eurofins 14-570M
T1 sequence (P07949 658-1114 limits assumed): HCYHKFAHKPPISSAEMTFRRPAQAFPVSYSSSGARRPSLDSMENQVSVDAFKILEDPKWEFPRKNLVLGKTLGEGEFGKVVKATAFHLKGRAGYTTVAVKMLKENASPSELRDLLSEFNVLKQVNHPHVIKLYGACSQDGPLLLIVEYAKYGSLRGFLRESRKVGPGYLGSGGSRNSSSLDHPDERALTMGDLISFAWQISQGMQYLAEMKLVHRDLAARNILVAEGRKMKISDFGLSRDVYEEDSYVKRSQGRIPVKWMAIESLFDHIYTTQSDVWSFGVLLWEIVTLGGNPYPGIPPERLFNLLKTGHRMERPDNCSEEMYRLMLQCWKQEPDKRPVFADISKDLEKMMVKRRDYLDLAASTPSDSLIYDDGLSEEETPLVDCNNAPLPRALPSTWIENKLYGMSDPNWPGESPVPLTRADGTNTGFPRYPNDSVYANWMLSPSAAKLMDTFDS
Nature of the assay: RET enzyme assay (HTRF KinEASE TK), wildtype. The assay is classed as biochemical. The settings on record: 1 mM ATP, 60 min incubation at 22° C. The method, then: Assay A: RET Enzyme Assay
Compounds of formulas I, II, or III are screened for their ability to inhibit wildtype, V804M, and G810S mutant RET kinase using CisBio's HTRF® KinEASE™TK assay technology. N-terminal GST tagged recombinant human RET cytoplasmic domain (aa 658-end) from Eurofins ([…]; Catalog No. 14-570M) or N-terminal GST tagged recombinant human V804M mutant RET cytoplasmic domain (aa 658-end) from Millipore (1.25 nM enzyme; Catalog No. 14-760) or N-Terminal GST-tagged recombinant human G810S (aa-658-end) (1.25 nM Enzyme; produced in insect cells) is incubated with 62.5 nM TK-substrate biotin (CisBio, part of Catalog No. 62TK0PEC) and 1 mM ATP along with test compound (0.4% final DMSO in the assay) in a 1× Cisbio enzymatic buffer consisting of […], 5 mM MgCl2, 0.04% BSA and 0.05% Tween20 in a volume of 10 μL. Compounds are typically prepared in a threefold serial dilution in DMSO and added to the assay to give the appropriate final concentration. After a 40-60 min (40 min for V804M, 60 min for WT and G810S) incubation at 22° C., the reaction is quenched by adding quench solution (10 μL) containing 7.8 nM Streptavidine-XL665 and 0.5×TK-ab-Cryptate in HTRF detection buffer (all from CisBio, part of Cat. No. 62TK0PEC). After a 60-80 min incubation (60 minutes for WT, 80 minutes for V804M and G810S) at 22° C., the extent of reaction is determined using a PHERastar plate reader via HTRF detection at excitation/emission 337/665 nm. Percent of inhibition is calculated with 0% inhibition referring to control conditions containing no compound (0.4% DMSO only) and 100% inhibition represented by conditions containing no enzyme. The % inhibition values are fit to a 4 parameter logistic curve, and the determined IC50 value is defined as the estimated concentration of inhibitor at the inflexion point of the fitted curve.
In general terms: In TR-FRET formats the signal depends on donor and acceptor labels being close together.

In assay [2] the target is T2, KIF5B-RET mutant form V804M in HEK293 cells (Homo sapiens, UniProt P07949, V804M).
T2 construct: expressed in transfected cells; host or cells: HEK293; the other entry of the earlier key: KIF5B (P33176, Kinesin-1 heavy chain)
T2 sequence (P07949 713-1063 V804M limits assumed): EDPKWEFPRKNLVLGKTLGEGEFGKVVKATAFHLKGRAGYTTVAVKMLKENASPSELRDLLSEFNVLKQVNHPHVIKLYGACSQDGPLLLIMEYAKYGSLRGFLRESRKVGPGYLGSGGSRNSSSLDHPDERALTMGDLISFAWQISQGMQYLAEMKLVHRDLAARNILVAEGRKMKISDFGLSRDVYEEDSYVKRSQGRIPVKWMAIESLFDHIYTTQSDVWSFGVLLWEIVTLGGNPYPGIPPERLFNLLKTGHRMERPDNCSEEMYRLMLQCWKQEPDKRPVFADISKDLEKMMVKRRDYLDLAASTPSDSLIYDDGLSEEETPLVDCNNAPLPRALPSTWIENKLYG
Nature of the assay: RET cell assay (In-Cell Western, phospho-RET Y1062), V804M. The assay is classed as cell-based. The settings on record: HEK293, doxycycline-induced KIF5B-RET V804M, 1 hr compound treatment; read-out: EC50, inhibition of intracellular autophosphorylation of RET at tyrosine 1062, V804M cells. The method, then:
Compounds of formulas (I), (II), and (III) are screened for their ability to inhibit the intracellular autophosphorylation of RET at tyrosine 1062 as detected by In-Cell Western. HEK293 cells containing a doxycycline-inducible plasmid for inducible expression of KIF5B-RET WT and RET mutant forms V804M and G810S are seeded at 25,000 cells/well into black poly-D-lysine pre-coated 384-well plates (Corning, Catalog No. 356697). Expression of KIF5B-RET is induced with doxycycline at 1 μg/mL and cells are incubated at 37° C. overnight. Compounds are prepared in a threefold serial dilution in DMSO before further diluting 1:100 in media prior to the addition to the cells (0.1% final DMSO concentration). Compound treatment is performed for 1 hr at 37° C. followed by fixation of cells with 4% formaldehyde for 20 min at RT and cell permeabilisation with ice-cold MeOH for 10 min at RT. Cells are incubated with Intercept® blocking buffer (Li—COR, Catalogue No. 927-70010) for 1 hr at RT. Incubation with primary antibodies against human phospho-RET (Y1062) (R&D, Catalogue No. AF5009, 1/250 dilution) and human glyceraldehyde-3-phosphate dehydrogenase (clone 6C5, Merck, Catalog No. MAB374, 1/1000 dilution) are performed overnight at 4° C. Incubation with secondary antibodies IRDye® 800CW goat anti-rabbit IgG (Li—COR, Catalogue No. 926-32211, 1/1000 dilution) and IRDye® 680CW goat anti-mouse IgG (Li—COR, Catalogue No. 926-68070, 1/1000 dilution) are performed for 1 hr at RT. All antibody dilutions are done in Intercept® blocking buffer containing 0.05% Tween20. After washing cells with PBS-T (Cell Signaling technology, Catalogue No. 9809), the images are acquired on a Li—COR Odyssey LCx at 700 and 800 nm. Percent of DMSO control is calculated with 100% signal referring to control conditions containing no compound (0.4% DMSO only) and 0% signal represented by conditions containing control compound. The % of DMSO control values are fit to a 4 parameter logistic curve, and the determined EC50 value is defined as the estimated concentration of inhibitor at the inflexion point of the fitted curve.

The term IC50 denotes the concentration that inhibits the measured activity by half. As a reminder, the EC50 is the concentration that produces a half-maximal response. As to `CC(C(=O)Nc1cc(CC(C)(C)C)no1)c1ccc(-c2nn(C(C)C)c(N)c2C(N)=O)cc1` (single isomer, unassigned; isomer 1) [Example 1, 5-Amino-3-[4-(1-[[3-(2,2-dimethylpropyl)-1,2-oxazol-5-yl]carbamoyl]ethyl)phenyl]-1-isopropylpyrazole-4-carboxamide, Isomer 1], the IC50 in assay [1] was < 100 nM. Also, the EC50 in assay [2] was < 100 nM.

`CCC(C)(C)c1cc(NC(=O)C(C)c2ccc(-c3nn(C(C)C)c(N)c3C(N)=O)cc2)on1` (single isomer, unassigned; isomer 1) [Example 15, 5-Amino-1-isopropyl-3-[4-(1-[[3-(2-methylbutan-2-yl)-1,2-oxazol-5-yl]carbamoyl]ethyl)phenyl]pyrazole-4-carboxamide, Isomer 1]: the half-maximal inhibitory concentration (IC50) in assay [1] is < 100 nM. Also, the EC50 in assay [2] is < 100 nM.

As for `CC(C(=O)Nc1cc(C(C)(C)C(F)(F)F)no1)c1ccc(-c2nn(C(C)C)c(N)c2C(N)=O)cc1` (single isomer, unassigned; isomer 1) [Example 17, 5-Amino-1-isopropyl-3-[4-(1-[[3-(1,1,1-trifluoro-2-methylpropan-2-yl)-1,2-oxazol-5-yl]carbamoyl]ethyl)phenyl]pyrazole-4-carboxamide, Isomer 1], the IC50 in assay [1] is < 100 nM. Further, the EC50 in assay [2] is < 100 nM.

Take `CC(C(=O)Nc1cc(C2(C)CC2)no1)c1ccc(-c2nn(C(C)C)c(N)c2C(N)=O)cc1` (single isomer, unassigned; isomer 1) [Example 35, 5-Amino-1-isopropyl-3-[4-(1-[[3-(1-methylcyclopropyl)-1,2-oxazol-5-yl]carbamoyl]ethyl)phenyl]pyrazole-4-carboxamide, Isomer 1]: the IC50 in assay [1] is < 100 nM. The EC50 in assay [2] is < 100 nM.

Turning to `CC(C(=O)Nc1cc(-c2ccc(Cl)cc2Cl)no1)c1ccc(-c2nn(C(C)C)c(N)c2C(N)=O)cc1` (single isomer, unassigned; isomer 1) [Example 45, 5-Amino-3-[4-(1-[[3-(2,4-dichlorophenyl)-1,2-oxazol-5-yl]carbamoyl]ethyl)phenyl]-1-isopropylpyrazole-4-carboxamide, Isomer 1], the IC50 in assay [1] was < 100 nM. Moreover, the EC50 in assay [2] was < 100 nM.

With `CC(C(=O)Nc1cc(C(C)(C)C(F)(F)F)on1)c1ccc(-c2nn(C(C)C)c(N)c2C(N)=O)cc1` (single isomer, unassigned; isomer 1) [Example 81, 5-Amino-1-isopropyl-3-[4-(1-[[5-(1,1,1-trifluoro-2-methylpropan-2-yl)-1,2-oxazol-3-yl]carbamoyl]ethyl)phenyl]pyrazole-4-carboxamide, Isomer 1], the IC50 in assay [1] was < 100 nM. In addition, the EC50 in assay [2] is < 100 nM.

Regarding `CC(C(=O)Nc1cc(C2CC(C)(C)C2)no1)c1ccc(-c2nn(C(C)C)c(N)c2C(N)=O)cc1` (single isomer, unassigned; isomer 1) [Example 98, 5-Amino-3-[4-[2-[[3-(3,3-dimethylcyclobutyl)isoxazol-5-yl]amino]-1-methyl-2-oxo-ethyl]phenyl]-1-isopropyl-pyrazole-4-carboxamide, Isomer 1], the IC50 in assay [1] was < 100 nM. The EC50 in assay [2] was < 100 nM.

Consider `CCC(C)(C)c1cc(NC(=O)C(C)c2ccc(-c3nn(C(C)C)c(N)c3C(N)=O)cc2)no1` (single isomer, unassigned; isomer 2) [Example 52, 5-Amino-1-isopropyl-3-[4-(1-[[5-(2-methylbutan-2-yl)-1,2-oxazol-3-yl]carbamoyl]ethyl)phenyl]pyrazole-4-carboxamide, Isomer 2], for which the IC50 in assay [1] was < 100 nM. Further, in assay [2], the EC50 was < 100 nM.

As for `CC(C(=O)Nc1cc(C(C)(C)C(F)(F)F)on1)c1ccc(-c2nn(C(C)C)c(N)c2C(N)=O)nc1` (single isomer, unassigned; isomer 2) [Example 64, 5-Amino-1-isopropyl-3-[5-(1-[[5-(1,1,1-trifluoro-yl)-1,2-oxazol-3-2-methylpropan-2-yl]carbamoyl]ethyl)pyridin-2-yl]pyrazole-4-carboxamide, Isomer 2], the IC50 in assay [1] was < 100 nM. Also, the EC50 in assay [2] was < 100 nM.

Turning to `CCC(C)(C)c1cc(NC(=O)C(C)c2ccc(-c3nn(C(C)C)c(N)c3C(N)=O)nc2)no1` (single isomer, unassigned; isomer 2) [Example 66, 5-Amino-1-isopropyl-3-[5-(1-[[5-(2-methylbutan-2-yl)-1,2-oxazol-3-yl]carbamoyl]ethyl)pyridin-2-yl]pyrazole-4-carboxamide, Isomer 2], in assay [1], the IC50 is < 100 nM. In assay [2], the EC50 was < 100 nM.

Regarding `CC(C(=O)Nc1cc(C(C)(C)CC(F)(F)F)on1)c1ccc(-c2nn(C(C)C)c(N)c2C(N)=O)nc1` (single isomer, unassigned; isomer 2) [Example 68, 5-Amino-1-isopropyl-3-(5-(1-oxo-1-((5-(4,4,4-trifluoro-2-methylbutan-2-yl)isoxazol-3-yl)amino)propan-2-yl)pyridin-2-yl)-1H-pyrazole-4-carboxamide, Isomer 2], the IC50 in assay [1] was < 100 nM. Besides, the EC50 in assay [2] is < 100 nM.

Regarding `CC(C(=O)Nc1cc(C(C)(C)C(C)(F)F)on1)c1ccc(-c2nn(C(C)C)c(N)c2C(N)=O)nc1` (single isomer, unassigned; isomer 2) [Example 70, 5-Amino-3-[5-(1-[[5-(3,3-difluoro-2-methylbutan-2-yl)-1,2-oxazol-3-yl]carbamoyl]ethyl)pyridin-2-yl]-1-isopropylpyrazole-4-carboxamide, Isomer 2], in assay [1], the IC50 is < 100 nM. Besides, the EC50 in assay [2] is < 100 nM.
